Here are results for eight compounds from patent publication US20110045101A1, “FUNGICIDAL SUBSTITUTED AZOLES” (E.I. Du Pont De Nemours and Company, priority 2009, published 2011).

SMILES strings stand for the structures. Marks after values point to notes of the source that are not given here.

Format in all cases: in vivo
Common to all, as to settings: 100 = 100% disease control

In test [1] the test system is Puccinia recondita f. sp. tritici. Nature of the test: Test I: wheat leaf rust on wheat seedlings, sprayed the day before inoculation, visual disease rating. Summed up: (§1)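 Spray suspension: acetone 3% of final volume, then 50/50 acetone/water plus 250 ppm Trem® 014. Applied to run-off on seedlings at 200 ppm (≈500 g/ha); starred entries tested at 40 ppm.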
Another test concerns Botrytis cinerea. Nature of the test: Test C: tomato Botrytis on tomato seedlings, sprayed the day before inoculation, visual disease rating. Summed up: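 Spray to run-off on tomato seedlings; test conc. 200 ppm (≈500 g/ha), some entries 40 ppm. Formulation: acetone 3% of final vol., then acetone/water 50:50 + 250 ppm polyhydric alcohol ester surfactant.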
Test [2] relates to Erysiphe graminis f. sp. tritici. Nature of the test: Test J: wheat powdery mildew on wheat seedlings, sprayed the day before inoculation, visual disease rating. In outline:
as §1

The subject of another test is Septoria tritici. Nature of the test: Test G: wheat leaf blotch on wheat seedlings, sprayed the day before inoculation, visual disease rating. In outline:
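Compounds dissolved in acetone (3% of final volume), then suspended in 50/50 acetone/water with 250 ppm Trem® 014 and sprayed to run-off on seedlings at 200 ppm (≈500 g/ha) or 40 ppm where marked. Inoculation with spores followed next day; visual rating after 48 h saturated at 24° C plus 19 days at 20° C.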

The test system of test [3] is Puccinia recondita f. sp. tritici. Nature of the test: Test H: wheat leaf rust, test suspension sprayed after inoculation of wheat seedlings, visual disease rating. Summed up:
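Wheat seedlings inoculated with P. recondita spores, held 24 h saturated at 20 °C, then 2 days in growth chamber at 20 °C; compound suspension (acetone/water with Trem 014) sprayed to run-off afterwards. Rated visually; 200 ppm (≈500 g/ha) unless marked *, which denotes 40 ppm.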

In another test the test system is Alternaria solani. Nature of the test: Test D: tomato early blight, sprayed the day before inoculation, visual disease rating. In outline: as §1
The subject of another test is Septoria nodorum. Nature of the test: Test F: wheat glume blotch on wheat seedlings, sprayed the day before inoculation, visual disease rating. Summed up: as §1
The mark [4] stands for this setting: 200 ppm, 0 = no control relative to controls.

Regarding `N#Cc1ccc(F)c(-c2c(CCl)nc(Cl)n2-c2ccc(Cl)nc2)c1F` [compound 717], the “Test I disease control rating” value in test [1] (setting [4]) is 96%. The “Test C disease control rating” value with Botrytis cinerea (setting [4]) came to 100%. Besides, the “Test J disease control rating” value in test [2] (setting [4]) came out at 79%. The “Test G disease control rating” value in the test with Septoria tritici (setting [4]) was found to be 99%. The “Test H disease control rating” value in test [3] (setting [4]) is reported as 0%. Further, the “Test D disease control rating” value with Alternaria solani (setting [4]) came out at 100%. In addition, the “Test F disease control rating” value in the test on Septoria nodorum (setting [4]) came out at 0%.
Take `COc1cc(F)c(-c2c(Cl)nc(Cl)n2-c2ccc(OC(F)(F)F)cc2)c(F)c1` [compound 568]: the “Test I disease control rating” value in test [1] (setting [4]) came out at 100%. Besides, the “Test C disease control rating” value in the test with Botrytis cinerea (setting [4]) turned out to be 99%. Besides, the “Test J disease control rating” value in test [2] (setting [4]) turned out to be 100%. Moreover, the “Test G disease control rating” value with Septoria tritici (setting [4]) turned out to be 94%. For the same compound, in test [3] (setting [4]), the “Test H disease control rating” value turned out to be 72%. Moreover, the “Test D disease control rating” value with Alternaria solani (setting [4]) amounted to 100%. In addition, the “Test F disease control rating” value in the test with Septoria nodorum (setting [4]) is reported as 98%.
As for `Cc1nc(Cl)c(-c2c(F)cc(F)cc2F)n1-c1cccc(OC(F)(F)F)c1` [compound 611], the “Test I disease control rating” value in test [1] (setting [4]) was 16%. The “Test C disease control rating” value in the test on Botrytis cinerea (setting [4]) was 91%. The “Test J disease control rating” value in test [2] (setting [4]) was 57%. Further, the “Test G disease control rating” value in the test on Septoria tritici (setting [4]) is recorded as 81%. The “Test H disease control rating” value in test [3] (setting [4]) was 0%. Also, the “Test D disease control rating” value in the test on Alternaria solani (setting [4]) worked out at 66%. Also, the “Test F disease control rating” value in the test on Septoria nodorum (setting [4]) was 0%.
Turning to `COc1ccc(F)c(-c2c(Cl)ncn2-c2ccc(C)c(F)c2)c1F` [compound 520], in test [1] (setting [4]), the “Test I disease control rating” value came to 99%. In the test on Botrytis cinerea (setting [4]), the “Test C disease control rating” value was 100%. The “Test J disease control rating” value in test [2] (setting [4]) came out at 100%. Also, in the test on Septoria tritici (setting [4]), the “Test G disease control rating” value is 97%. The “Test H disease control rating” value in test [3] (setting [4]) was determined as 0%. Moreover, the “Test D disease control rating” value in the test on Alternaria solani (setting [4]) was 100%. Besides, the “Test F disease control rating” value in the test on Septoria nodorum (setting [4]) was 0%.
Consider `Fc1ccc(-n2cnc(Br)c2-c2c(F)ccc(F)c2F)cc1` [compound 332], for which, in test [1] (setting [4]), the “Test I disease control rating” value came to 96%. In the test on Botrytis cinerea (setting [4]), the “Test C disease control rating” value was found to be 100%. The “Test J disease control rating” value in test [2] (setting [4]) was 99%. Further, the “Test G disease control rating” value with Septoria tritici (setting [4]) amounted to 95%. Also, the “Test H disease control rating” value in test [3] (setting [4]) was 9%. For the same compound, the “Test D disease control rating” value with Alternaria solani (setting [4]) is reported as 99%. In addition, in the test with Septoria nodorum (setting [4]), the “Test F disease control rating” value is given as 60%.
Regarding `COc1ccc(F)c(-c2c(Cl)nc(C)n2Cc2ccc(Cl)cc2)c1F` [compound 294], the “Test I disease control rating” value in test [1] (200 ppm, 0 = no control) is recorded as 98%. For the same compound, in the test with Botrytis cinerea (200 ppm, 0 = no control), the “Test C disease control rating” value is on record as 99%. Also, in test [2] (200 ppm, 0 = no control), the “Test J disease control rating” value is 97%. Further, the “Test G disease control rating” value in the test with Septoria tritici (200 ppm, 0 = no control) came to 96%. The “Test H disease control rating” value in test [3] (200 ppm, 0 = no control) is recorded as 11%. Moreover, in the test on Alternaria solani (200 ppm, 0 = no control), the “Test D disease control rating” value was 100%. The “Test F disease control rating” value with Septoria nodorum (200 ppm, 0 = no control) came out at 98%.
Broadly, the pest or weed control is how far the test organism was held down. A lower pest or weed control goes with weak suppression. As for `COc1cc(F)c(-c2c(Cl)nc(CF)n2-c2ccc(F)cc2)c(F)c1` [Compound 331, 4-chloro-5-(2,6-difluoro-4-methoxyphenyl)-2-(fluoromethyl)-1-(4-fluorophenyl)-1H-imidazole], the pest or weed control at 200 ppm in test [1] (Puccinia recondita, 168 h, 200 ppm, 0 = no control relative to controls) came to 100%; with Botrytis cinerea (Botrytis cinerea, 120 h, 200 ppm, 0 = no control relative to controls), 100%; in test [2] (Blumeria graminis, 168 h, 200 ppm, 0 = no control relative to controls), 100%; with Septoria tritici (Zymoseptoria tritici, 504 h, 200 ppm, 0 = no control relative to controls), 95%; in test [3] (Puccinia recondita, 96 h, 200 ppm, 0 = no control relative to controls), 85%; in the test with Alternaria solani (Alternaria solani, 168 h, 200 ppm, 0 = no control relative to controls) it was 100%. Also, in the test on Septoria nodorum (Parastagonospora nodorum, 264 h, 200 ppm, 0 = no control relative to controls), the pest or weed control at 200 ppm came to 99%.
With `Cc1nc(Cl)c(-c2c(F)cccc2F)n1-c1ccc2c(c1)OC(F)(F)O2` [compound 608], the “Test I disease control rating” value in test [1] (40 ppm (marked *)) is 41* %. Moreover, the “Test C disease control rating” value with Botrytis cinerea (40 ppm (marked *)) is given as 17* %. Moreover, the “Test J disease control rating” value in test [2] (40 ppm (marked *)) is 0* %. For the same compound, in the test on Septoria tritici (40 ppm (marked *)), the “Test G disease control rating” value is listed as 4* %. Further, in test [3] (40 ppm (marked *)), the “Test H disease control rating” value was 7* %. Further, the “Test D disease control rating” value in the test with Alternaria solani (40 ppm (marked *)) was 0* %. In the test on Septoria nodorum (40 ppm (marked *)), the “Test F disease control rating” value is reported as 0* %.
